# Assay results: patent US20060216253A1, “Whitening cosmetics containing morus alba extracts” (Time and Cross, Inc., priority 2005, published 2006)
# Key:
# Mushroom Tyrosinase [1] = assay: Inhibitory effects on mushroom tyrosinase (dopachrome, OD490, 15 min); format: biochemical; details: for IC50: 37° C., 15 min, L-tyrosine substrate
# Protocol: (§1) L-Tyrosine, the substrate for tyrosinase, was dissolved in 50 mM sodium phosphate buffer (pH6.8) to prepare a solution of 0.1 mg/mL L-tyrosine. […] 100 μL of the L-tyrosine solution was introduced into a test tube, and 100 μL of 50 mM sodium phosphate buffer (pH6.8) with or without test samples were added thereto, and then 10 μL of 200 U/mL tyrosinase were mixed and incubated at 37° C. for 15 min.
# The amount of dopachrome in the reaction mixture was determined spectrophotmetrically using absorbance measurement at 490 nm.
# [2] = tested on: murine melanoma B16 cells; assay: Melanin production in murine melanoma B-16 cells; format: cell-based; details: for Melanin production (%): B16 cells, 3 days; for inhibitory effects on melanin production (in words): any of the concentrations assayed
# Protocol: (§2) The melanoma cell line was grown in DMEM culture medium containing 4.5 g of glucose/l, 10% fetal bovine serum and 1% antibiotic agent and cultivated at 37° C. under a condition of 5% CO2. The cell suspension was inoculated in a 50 mL T-flask (3×10^5 cells/mL) and the cells were allowed to completely adhere to the plate for 24 hr. Then, test samples diluted in DMEM medium at concentrations of 1, 5, 10, 50, and 100 μg/mL were added to the cultivated cells, and the mixture was cultivated at 5% CO2 and 37° C. for 3 days. After cultivation, culture medium was thoroughly removed and the cells were isolated via trypsin treatment. The suspensions were then centrifuged for 5 min to collect cells. The obtained cells were treated with 5% trichloroacetic acid (TCA), stirred and centrifuged. The precipitated melanin was washed with phosphate buffered saline (PBS), and treated with 1 N NaOH to dissolve the melanin therein. Absorbance at 475 nm was measured. Melanin concentration was determined from a standard concentration curve of synthetic melanin (SIGMA Co., USA).
# [3] = tested on: murine melanoma B16 cells; assay: Cell viability (MTT assay) of murine melanoma B-16 cells; format: cell-based
# Protocol: as §2
# (§3) We used the MTT assay to determine the percentage of viable cells. After cultivation was completed, a solution of MTT was added to the cultivation solution and the mixture was incubated at 37° C. for 4 hr. After incubation, culture medium was thoroughly removed, and the residue was treated with DMSO (Dimethyl sulfoxide) and shaken for 20 min. The optical density at 580 nm was measured by an ELISA microplate reader.
# melan-a cell line [4] = assay: Melanin production in melan-a cell line; format: cell-based; details: melan-a cells; for Melanin production (%): 72 hr; for inhibitory effects on melanin production (in words): any of the concentrations assayed
# Protocol: (§4) Melan-a cells were grown in 10 mL of RPMI 1640 medium supplemented with antibiotics, 10% fetal bovine serum (FBS), and 20 nM TPA. The cell suspension was inoculated in a 24-well plate (10^5 cells/mL) and the cells were allowed to completely adhere to the plate for 24 hr. Test samples dissolved in DMSO were added to the plate and incubated at 37° C. for 72 hr in a CO2 incubator. The culture medium was then thoroughly removed and the cells were isolated through trypsin treatment. The suspensions were then centrifuged for 5 min to collect cells, which were then treated with 5% trichloroacetic acid (TCA), stirred and centrifuged to precipitate the melanin. Melanin was washed with PBS and dissolved in 1 N NaOH. Absorbance at 475 nm was measured. Melanin concentration was determined from a standard concentration curve of synthetic melanin (SIGMA Co., USA).
# melan-a cell line [5] = assay: Cell viability (MTT assay) of melan-a cell line; format: cell-based
# Protocol: as §4, §3
# Mushroom Tyrosinase [6] = assay: Extended duration of mushroom tyrosinase inhibition (up to 24 hours); format: biochemical; details: for reaction time until loss of tyrosinase inhibitory activity: 37° C., FIG. 3
# Protocol: as §1
# Using the experimental conditions described in the Mushroom Tyrosinase experiment described above, the reaction mixtures, containing various concentrations from 1 μg/mL to 50 μg/mL of the agents assayed, were incubated at 37° C. and spectrophotometric measurements of dopachrome were made at time intervals of up to 24 hours.
# melanocytes = assay: Microscopic observation of pigmentation of confluent melanocyte monolayer; format: cell-based; details: cell line not specified
# Text: The pigmentation of a confluent monolayer of melanocytes is visible microscopically, as the cells contain black melanin pigment.
SMILES,IC50 (Mushroom Tyrosinase [1]) [µM],Melanin production (%) ([2]; 1 μg/mL),Melanin production (%) ([2]; 5 μg/mL),Melanin production (%) ([2]; 10 μg/mL),Melanin production (%) ([2]; 50 μg/mL),Melanin production (%) ([2]; 100 μg/mL),inhibitory effects on melanin production (in words) ([2]; melanoma B-16 cells),"Cell viability (%) ([3]; B16 cells, 1 μg/mL, MTT)","Cell viability (%) ([3]; B16 cells, 5 μg/mL, MTT)","Cell viability (%) ([3]; B16 cells, 10 μg/mL, MTT)","Cell viability (%) ([3]; B16 cells, 50 μg/mL, MTT)","Cell viability (%) ([3]; B16 cells, 100 μg/mL, MTT)",Melanin production (%) (melan-a cell line [4]; 1 μg/mL),Melanin production (%) (melan-a cell line [4]; 5 μg/mL),Melanin production (%) (melan-a cell line [4]; 10 μg/mL),Melanin production (%) (melan-a cell line [4]; 50 μg/mL),Melanin production (%) (melan-a cell line [4]; 100 μg/mL),inhibitory effects on melanin production (in words) (melan-a cell line [4]),"Cell viability (%) (melan-a cell line [5]; melan-a cells, 1 μg/mL, MTT)","Cell viability (%) (melan-a cell line [5]; melan-a cells, 5 μg/mL, MTT)",further results
"OC[C@H]1O[C@@H](Oc2ccc(O)cc2)[C@H](O)[C@@H](O)[C@@H]1O [Arbutin, arbutin]",145,99.4 ± 2.1,100.8 ± 4.5,103.2 ± 1.9,98.9 ± 8.2,98.2 ± 6.9,did not show inhibitory effects on melanin production,102.4 ± 5.3,100.1 ± 7.8,98.5 ± 6.3,96.6 ± 8.0,93.2 ± 5.6,104.2 ± 3.2,103.7 ± 4.6,102.0 ± 5.7,100.4 ± 4.0,99.5 ± 7.2,did not show inhibitory effects on melanin production,104.2 ± 7.2,105.2 ± 8.3,"Cell viability (%) (melan-a cell line [5]; melan-a cells, 10 μg/mL, MTT): 100.7 ± 5.0%; Cell viability (%) (melan-a cell line [5]; melan-a cells, 50 μg/mL, MTT): 98.3 ± 7.7%; Cell viability (%) (melan-a cell line [5]; melan-a cells, 100 μg/mL, MTT): 93.8 ± 5.6%; reaction time until loss of tyrosinase inhibitory activity (Mushroom Tyrosinase [6]; 2 μg/mL): loses activity in about one hour; reaction time until loss of tyrosinase inhibitory activity (Mushroom Tyrosinase [6]; 5 μg/mL): loses activity in about one hour"
"O=c1cc(CO)occ1O [Kojic acid, kojic acid]",,102.4 ± 4.7,98.2 ± 7.1,96.5 ± 3.7,94.1 ± 5.2,91.6 ± 7.1,did not show inhibitory effects on melanin production,95.2 ± 8.3,97.2 ± 7.6,96.2 ± 5.0,86.7 ± 3.4,81.7 ± 8.5,103.4 ± 5.4,100.5 ± 8.2,99.4 ± 7.1,95.1 ± 6.7,92.4 ± 8.0,did not show inhibitory effects on melanin production,95.3 ± 8.0,96.8 ± 4.7,"Cell viability (%) (melan-a cell line [5]; melan-a cells, 10 μg/mL, MTT): 95.1 ± 9.0%; Cell viability (%) (melan-a cell line [5]; melan-a cells, 50 μg/mL, MTT): 84.2 ± 8.2%; Cell viability (%) (melan-a cell line [5]; melan-a cells, 100 μg/mL, MTT): 80.5 ± 8.3%; reaction time until loss of tyrosinase inhibitory activity (Mushroom Tyrosinase [6]; 2 μg/mL): loses activity within two hours; reaction time until loss of tyrosinase inhibitory activity (Mushroom Tyrosinase [6]; 5 μg/mL): within five hours"
"Oc1cc(O)cc(/C=C/c2ccc(O)cc2O)c1 [Oxyresveratrol, oxyresveratrol]",2.4,94.3 ± 7.7,90.8 ± 4.4,87.5 ± 6.9,57.3 ± 8.1,19.5 ± 8.2,,,,,,,95.1 ± 3.1,90.2 ± 6.4,88.5 ± 7.4,60.3 ± 9.1,20.6 ± 4.9,,,,"inhibitory effect on mushroom tyrosinase (in words) (Mushroom Tyrosinase [1]; FIGS. 1 and 2): the most potent inhibitors of mushroom tyrosinase; reduction in melanin production ([2]; melanoma B-16 cells, 100 μg/mL): 80.5%; Cell viability (%) ([3]; mouse, 3 days, 1 μg/mL): 99.5 ± 5.4%; Cell viability (%) ([3]; mouse, 3 days, 5 μg/mL): 97.4 ± 5.9%; Cell viability (%) ([3]; mouse, 3 days, 10 μg/mL): 95.3 ± 7.6%; Cell viability (%) ([3]; mouse, 3 days, 50 μg/mL): 66.2 ± 8.3%; Cell viability (%) ([3]; mouse, 3 days, 100 μg/mL): 23.1 ± 4.8%; reduction in melanin production (melan-a cell line [4]; 100 μg/mL): 79.4%; Cell viability (%) (melan-a cell line [5]; mouse, 72 h, 1 μg/mL): 99.0 ± 5.8%; Cell viability (%) (melan-a cell line [5]; mouse, 72 h, 5 μg/mL): 96.9 ± 7.9%; Cell viability (%) (melan-a cell line [5]; mouse, 72 h, 10 μg/mL): 94.7 ± 4.2%; Cell viability (%) (melan-a cell line [5]; mouse, 72 h, 50 μg/mL): 68.5 ± 5.5%; Cell viability (%) (melan-a cell line [5]; mouse, 72 h, 100 μg/mL): 27.3 ± 7.8%; inhibition of tyrosinase activity after 24 hours (Mushroom Tyrosinase [6]; 24 hours incubation, even at the lower concentrations tested, FIG. 4): about 90%; IC50 (Mushroom Tyrosinase [6]; read-out: IC50 for tyrosinase inhibition after 24 hours incubation, 24 hours incubation): 2.6 µM; pigmentation of treated cells observed microscopically (melanocytes): Reduced pigmentation"
